Results taken from US5180742A, “Quinone derivatives, their production and use” (Takeda Chemical Industries, Ltd., priority 1984, dated 1993).

Assays:
5-Lipoxygenase = biological target: T1, 5-Lipoxygenase (Rattus norvegicus, UniProt P12527); test: 5-Lipoxygenase inhibitory activity: 5-HETE production in RBL-1 cells (HPLC); type: cell-based, rat (RBL-1, rat basophilic leukemia cells); conditions: arachidonic acid + A 23187, 37° C., 20 minutes, read-out: 5-HETE production inhibiting effect (IC50)
T1 construct: endogenous in cells; host or cells: RBL-1 (rat basophilic leukemia cells)
T1 sequence (P12527 1-673): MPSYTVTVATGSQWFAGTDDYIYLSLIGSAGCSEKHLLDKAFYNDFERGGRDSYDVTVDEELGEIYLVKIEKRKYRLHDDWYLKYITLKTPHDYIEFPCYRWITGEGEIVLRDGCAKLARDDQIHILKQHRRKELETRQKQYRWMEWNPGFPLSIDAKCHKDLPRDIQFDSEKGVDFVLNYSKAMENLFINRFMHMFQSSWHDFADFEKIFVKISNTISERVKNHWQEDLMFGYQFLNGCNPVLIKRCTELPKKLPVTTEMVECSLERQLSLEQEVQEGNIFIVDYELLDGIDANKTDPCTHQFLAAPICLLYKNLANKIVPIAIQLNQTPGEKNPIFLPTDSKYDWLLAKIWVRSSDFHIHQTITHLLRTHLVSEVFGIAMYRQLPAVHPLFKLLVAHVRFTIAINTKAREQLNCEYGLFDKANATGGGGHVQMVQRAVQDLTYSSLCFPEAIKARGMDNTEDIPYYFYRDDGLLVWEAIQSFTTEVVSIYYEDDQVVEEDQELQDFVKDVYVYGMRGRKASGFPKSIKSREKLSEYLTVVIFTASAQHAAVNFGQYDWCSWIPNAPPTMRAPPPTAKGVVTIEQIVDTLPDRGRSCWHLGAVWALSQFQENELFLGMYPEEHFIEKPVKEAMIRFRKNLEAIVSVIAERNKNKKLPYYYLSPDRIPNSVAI
Procedure: 5-Lipoxygenase Inhibitory Activity
10^7 RBL-1 cells (rat basophilic leukemia cells) were suspended in 0.5 ml of MCM (mast cell medium), and test solutions (made up of 0.5 ml of MCM, 50 μg of arachidonic acid, 10 μg of A 23187 (calcium ionophore, Eli Lilly) and 1 μM, 0.1 μM, 0.01 μM and0.001 μM as the final concentration of the quinone compound, respectively) prepared previously were added respectively to the suspension, followed by reaction at 37° C. for 20 minutes. After the conclusion of the reaction, 4 ml of ethanol and 1,4-dimethoxy-2-methyl-3-(3-methoxypropyl)naphthalene as the internal reference drug were added to the reaction solution, and the mixture was shaken thoroughly and allowed to stand at room temperature for 10 minutes. Then, it was centrifuged (2000 r.p.m.) for 10 minutes, and the supernatant fluid was separated and concentrated to dryness under reduced pressure. 0.5 Milliliter of 60% aqueous methanol was added to the concentrate, and 100 μl of the resulting solution was taken and subjected to high-performance liquid chromatography to determine amount of 5-HETE (5-hydroxyeicosatetraenoic acid). Determination of 5-HETE was made through measurement of an absorption at 237 nm with a UV absorption monitor.
The 5-HETE production inhibitory effect (IE) was expressed by [formula] wherein a is a peak height or peak area corrected by the peak for the internal reference when the quinone compound is not contained; b is a peak height or peak area corrected by the peak for the internal reference when the quinone compound is contained.

[1] = system: Immunoglobulin-G1 mediated bronchoconstriction reaction; test: Action on immunoglobulin-G1 mediated bronchoconstriction reaction in guinea pigs; type: in vivo, Hartley guinea pigs; conditions: Cavia porcellus; 20 mg/kg oral, 1 hour before antigen
Procedure: Action on the Immunoglobulin-G1 Mediated Bronchoconstriction Reaction in Guinea Pigs
In accordance with the method of Orange and Moore (Orange, R. P. and Moore E. G. , J. Immunol., 116, 392-397, 1976), female and male Hartley guinea pigs weighing about 350 g were sensitized by intraperitoneal application of an emulsion (1 ml) composed of egg albumin (1 mg) and Freund's complete adjuvant (produced by Wako Pure-Chemical Industries, Ltd. of Japan). 3 Weeks after the sensitization, a serum antibody level in the sensitized guinea pigs was measured by means of the 3-hours passive cutaneous anaphylaxis (PCA) reaction in guinea pigs. […] The broncoconstriction reaction resulting from the antigen-antibody reaction was measured in accordance with the Konzett-Rossler method (Konzett, H. and Rossler, R., Naunyn-Schmiedeberg'ss Arch. exp. Path. pharmak., 195, 71-74, 1940). The guinea pigs were fixed on the dorsal position under anesthesia with a urethane (1.5 g/kg given intraperitonealy). An incision was made through the trachea, which was connected to an artificial respirator (manufactured by Harvard Co.) through an endotracheal tube, with a side tube of the endotracheal tube being attached to a brochoconstricting transducer (type 7020, manufactured by Ugobasile Co.). While an air volume per ventilation was adjusted to 5 to 7 ml and an air ventilation rate was controlled at 70 times/min., with a load pressure to the lung set at 10 cm H2 O, the overflown air volume was recorded on Rectigraphy-8S (manufactured by Sanei Sokki Inc. of Japan) through a transducer. After 1 mg/kg of gallamine triethiodide was given intravenously to the animals, 1 mg/kg of antigen, egg albumin dissolved in physiological saline, was applied intravenously to induce a brochoconstriction reaction. The bronchconstriction reaction was recorded for the period of time of 15 minutes. A drug was suspended in 5% gum arabic solution, and given orally 1 hour before the application of the antigen. Percent inhibition of the immunoglobuin G1 mediated bronchoconstriction reaction in guinea pigs are shown below in Table 3.

[2] = system: PAF-induced bronchoconstriction; test: Effect on PAF-induced bronchoconstriction in guinea pigs; type: in vivo; conditions: one hour before PAF
Procedure: Platelet Activating Factor (PAF)-Induced Bronchoconstriction in Guinea Pigs
Experimental procedure in this experiment was the same as that in LTD4 -induced bronchoconstriction shown in Experimental example 7. PAF is an intraveneous dose of 1 μg/kg was used. Each specimen suspended in a 5% gum arabic solution was given orally one hour before the PAF administration.

CCOC(=O)CCCCC(C1=C(C)C(=O)C(C)=C(C)C1=O)c1cccs1 (stereo not drawn) [Compound No. 1, ethyl 6-(3,5,6-trimethyl-1,4-benzoquinon-2-yl)-6-(2-thienyl)hexanoate] was tested, and the IC50 (5-Lipoxygenase) was 80 nM.

With CCOC(=O)CCCCC(C1=C(C)C(=O)c2ccccc2C1=O)c1cccs1 (stereo not drawn) [Compound No. 3] the IC50 (5-Lipoxygenase) was 60 nM.

CCOC(=O)CCCCC(C1=C(C)C(=O)c2ccccc2C1=O)c1ccccc1 (stereo not drawn) [Compound No. 5] gave an IC50 (5-Lipoxygenase) of 30 nM.

Work on CCOC(=O)CCCCC(C1=C(C)C(=O)C(OC)=C(OC)C1=O)c1cccs1 (stereo not drawn) [Compound No. 6] yielded an IC50 (5-Lipoxygenase) of 28 nM.

CCOC(=O)CCCCC(C1=C(C)C(=O)C(OC)=C(OC)C1=O)c1ccccc1 (stereo not drawn) [Compound No. 7] was tested, and the IC50 (5-Lipoxygenase) was 140 nM.

CC1=C(C)C(=O)C(C(CCCCCCC(=O)O)c2ccccc2)=C(C)C1=O (stereo not drawn) [Compound No. 9, 8-phenyl-8-(3,5,6-trimethyl-1,4-benzoquinon-2-yl)octanoic acid] showed an IC50 (5-Lipoxygenase) of 32 nM and an inhibition in vivo at 20 mg/kg [1] of 71%.

CC1=C(C)C(=O)C(C(CCCCC(=O)O)c2ccccc2)=C(C)C1=O (stereo not drawn) [Compound No. 10] showed an IC50 (5-Lipoxygenase) of 34 nM and an inhibition in vivo at 20 mg/kg [1] of 80%.

CC1=C(C)C(=O)C(C(CCCCCCCCC(=O)O)c2ccccc2)=C(C)C1=O (stereo not drawn) [Compound No. 11] gave an IC50 (5-Lipoxygenase) of 34 nM.

CC1=C(C(CCCCC(=O)O)c2ccccc2)C(=O)c2ccccc2C1=O (stereo not drawn) [Compound No. 12] gave an inhibition in vivo at 20 mg/kg [1] of 78%.

Compound CC1=C(C(CCCCC(=O)O)c2cccs2)C(=O)c2ccccc2C1=O (stereo not drawn) [Compound No. 13] has an IC50 (5-Lipoxygenase) of 80 nM.

CC1=C(C(CCCCCCC(=O)O)c2ccccc2)C(=O)c2ccccc2C1=O (stereo not drawn) [Compound No. 14] was tested, and the IC50 (5-Lipoxygenase) was 200 nM and the inhibition in vivo at 20 mg/kg [1] was 78%.

Work on CC1=C(C)C(=O)C(C(CCC(=O)O)c2ccccc2)=C(C)C1=O (stereo not drawn) [Compound No. 35, 4-(3,5,6-trimethyl-1,4-benzoquinon-2-yl)-4-phenylbutyric acid] yielded an IC50 (5-Lipoxygenase) of 440 nM.

With COC1=C(OC)C(=O)C(C(CCC(=O)O)c2ccccc2)=C(C)C1=O (stereo not drawn) [Compound No. 39] the IC50 (5-Lipoxygenase) was 1300 nM.

With CC1=C(C)C(=O)C(C(CCCCCCO)c2ccccc2)=C(C)C1=O (stereo not drawn) [Compound No. 45, 7-(3,5,6-trimethyl-1,4-benzoquinon-2-yl)-7-phenylheptanol] the IC50 (5-Lipoxygenase) was 28 nM and the inhibition in vivo at 20 mg/kg [1] was 91%.

In the case of COC1=C(OC)C(=O)C(C(CCCCCCO)c2ccccc2)=C(C)C1=O (stereo not drawn) [Compound No. 56, 7-(5,6-dimethoxy-3-methyl-1,4-benzoquinon-2-yl)-7-phenylheptanol], the IC50 (5-Lipoxygenase) is reported as 62 nM.

CC1=C(C(CCCCCCCCC(=O)O)c2ccccc2)C(=O)c2ccccc2C1=O (stereo not drawn) [compound 15] gave an IC50 (5-Lipoxygenase) of 50 nM.

Work on COC1=C(OC)C(=O)C(C(CCCCC(=O)O)c2ccccc2)=C(C)C1=O (stereo not drawn) [compound 16] yielded an IC50 (5-Lipoxygenase) of 32 nM.

In the case of COC1=C(OC)C(=O)C(C(CCCCC(=O)O)c2cccs2)=C(C)C1=O (stereo not drawn) [compound 17], the IC50 (5-Lipoxygenase) is reported as 200 nM.

Compound COC1=C(OC)C(=O)C(C(CCCCCCC(=O)O)c2ccccc2)=C(C)C1=O (stereo not drawn) [compound 18] has an IC50 (5-Lipoxygenase) of 200 nM.

Work on CC1=C(C)C(=O)C(C(CCCCCCC(=O)O)c2ccc3c(c2)CCC3)=C(C)C1=O (stereo not drawn) [compound 25] yielded an inhibition in vivo at 20 mg/kg [1] of 83%.

COc1ccc(C(CCCCCC(=O)O)C2=C(C)C(=O)c3ccccc3C2=O)cc1 (stereo not drawn) [compound 26] gave an inhibition in vivo at 20 mg/kg [1] of 85%.

For CC1=C(C(CCCCCC(=O)O)c2ccc3ccccc3c2)C(=O)c2ccccc2C1=O (stereo not drawn) [compound 27], the inhibition in vivo at 20 mg/kg [1] was 81%.

Work on CC1=C(C(CCCCCC(=O)O)c2ccc3c(c2)CCC3)C(=O)c2ccccc2C1=O (stereo not drawn) [compound 28] yielded an inhibition in vivo at 20 mg/kg [1] of 85%.

With CC1=C(C(CCCCCCC(=O)O)c2ccc3c(c2)CCC3)C(=O)c2ccccc2C1=O (stereo not drawn) [compound 29] the inhibition in vivo at 20 mg/kg [1] was 81%.

CC1=C(C(CCCC(=O)O)c2ccccc2)C(=O)c2ccccc2C1=O (stereo not drawn) [compound 38] was tested, and the inhibition in vivo at 20 mg/kg [1] was 73%.

In the case of CC1=C(C)C(=O)C(C(CCCO)c2ccccc2)=C(C)C1=O (stereo not drawn) [compound 46], the IC50 (5-Lipoxygenase) is reported as 730 nM.

In the case of CCCCCCC(C1=C(C)C(=O)C(C)=C(C)C1=O)c1ccccc1 (stereo not drawn) [compound 49], the inhibition in vivo at 20 mg/kg [1] is reported as 84%.

CC1=C(C)C(=O)C(C(CCCCCCOC(N)=O)c2ccccc2)=C(C)C1=O (stereo not drawn) [compound 59] was tested, and the inhibition in vivo at 20 mg/kg [1] was 83%.

Compound CC1=C(C)C(=O)C(C(CCCCCCCO)c2ccc3c(c2)CCC3)=C(C)C1=O (stereo not drawn) [compound 76] has an inhibition in vivo at 20 mg/kg [1] of 89%.

Compound CC1=C(C(CCCCCC(=O)O)c2ccccc2)C(=O)c2ccccc2C1=O (stereo not drawn) [compound 86] has an inhibition in vivo at 20 mg/kg [1] of 80%.

Work on CC1=C(C(CCCCCC(=O)O)c2ccc(F)cc2)C(=O)c2ccccc2C1=O (stereo not drawn) [compound 89] yielded an inhibition in vivo at 20 mg/kg [1] of 65%.

For CC1=C(C)C(=O)C(C(CCCCCC(N)=O)c2ccccc2)=C(C)C1=O (stereo not drawn) [compound 146, 7-(3,5,6-trimethyl-1,4-benzoquinon-2-yl)-7-phenylheptanamide], the “% Inhibition of PAF-induced bronchoconstriction” value (from here on “% Inhibition”) ([2]; 0.31 mg/kg oral) was 49.7%, the “% Inhibition” value ([2]; 1.25 mg/kg oral) was 80.3% and the “% Inhibition” value ([2]; 5 mg/kg oral) was 100.0%.

For CC1=C(C)C(=O)C(C(CCCCCC(=O)N2CCN(CCc3ccccc3)CC2)c2ccccc2)=C(C)C1=O (stereo not drawn) [compound 163, 4-[7-(3,5,6-trimethyl-1,4-benzoquinon-2-yl)-7-phenylheptanoyl]-(2-phenylethyl)piperazine], the “% Inhibition” value ([2]; 5 mg/kg oral) was 59.9%.
